One data set has as its target hDOR (Homo sapiens, UniProt P41143). In words: Radioligand binding assay (Eurofins Cerep), [3H]DADLE displacement.
The next data set concerns the target hMOR (Homo sapiens, UniProt P35372). Briefly: Radioligand binding assay (Eurofins Cerep), [3H]DAMGO displacement.
Another data set has as its target hKOR (Homo sapiens, UniProt P41145). Briefly: Radioligand binding assay (Eurofins Cerep), [3H]U69,593 displacement.
Another data set has as its target T1, α2A adrenergic receptor (Homo sapiens, UniProt P08913).
T1 construct: Eurofins Cerep (contract screening)
T1 sequence (P08913 1-465): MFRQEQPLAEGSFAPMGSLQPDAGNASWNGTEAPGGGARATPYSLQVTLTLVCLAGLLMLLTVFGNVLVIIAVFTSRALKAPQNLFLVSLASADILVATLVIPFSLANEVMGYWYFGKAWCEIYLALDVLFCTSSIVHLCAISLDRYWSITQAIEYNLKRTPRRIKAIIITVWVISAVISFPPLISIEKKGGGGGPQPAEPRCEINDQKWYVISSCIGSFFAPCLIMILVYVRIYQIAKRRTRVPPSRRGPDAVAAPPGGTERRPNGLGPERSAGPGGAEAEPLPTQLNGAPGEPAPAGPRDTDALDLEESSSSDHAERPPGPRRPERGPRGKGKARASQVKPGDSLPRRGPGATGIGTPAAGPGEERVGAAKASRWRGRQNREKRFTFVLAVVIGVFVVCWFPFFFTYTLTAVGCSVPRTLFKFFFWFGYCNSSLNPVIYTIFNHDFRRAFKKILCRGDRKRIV
Briefly: Radioligand binding assay (Eurofins Cerep), [3H]RX 821002 displacement.

Data set [1] in a line: Metabolic stability in rat liver microsomes. The data set is classed as in vitro ADME. The following applies: for Whole liver clearance, CL int, H: in vitro intrinsic clearance in RLM scaled to whole organ (rat); for RLM stability: rat liver microsomes 1 mg/ml, substrate 1 μM, NADPH, 37° C. The method, then:
In vitro metabolic stability of each compound was determined using rat liver microsomes in triplicate. Verapamil was used as a positive control to check the activity of the microsomes. The incubation mixtures consisted of rat liver microsomes (1 mg microsomal protein/ml), substrate (1 μM), and reduced NADPH (1 mM) in a total volume of 0.4 ml potassium phosphate buffer (50 mM, pH 7.4). Reactions were initiated with the addition of NADPH and kept in an incubator shaker at 37° C. Aliquots of 25 μl were withdrawn at 0, 5, 10, 15, 30, and 60 min and mixed with 125 μl of acetonitrile with formic acid (0.1% v/v) containing phenacetin (50 ng/ml; internal standard) for the termination of the reaction. The samples were then vortex mixed and filtered through a […] 96-well membrane filtration plate under centrifugation at speed of 2000×g for 5 min at 4° C. The filtrates were subjected to UPLC-mass spectrometry (MS/MS) analysis.
The intrinsic clearance of the compounds was calculated using a half-life employing the ‘substrate depletion’ approach. The apparent half-life was calculated from the pseudo-first-order rate constants obtained by linear regression of log (concentration) and time plots. The in vitro intrinsic clearance of IFN was estimated using the formula: […]
Where k is the slope of the line obtained by plotting the natural logarithmic of the percentage of parent remaining versus time and V is the volume of incubation.
The in vitro intrinsic clearance was scaled to whole-organ (hepatic) in vivo intrinsic CL (CLint,H) using the scaling factors available in the literature using equation (Mahmood I. Application of allometric principles for the prediction of pharmacokinetics in human and veterinary drug development. Advanced drug delivery reviews, 2007, 59(11), 1177-1192)
MPPGL represents the microsomal protein per gram of Sprague Dawley rat liver (45 mg/g) and liver weight per kg body weight was 40 g/kg.
(In general: Liver microsomes are vesicles of endoplasmic reticulum, rich in cytochrome P450 enzymes.)

The target in another data set is T2, α2C adrenergic receptor (Homo sapiens, UniProt P18825).
T2 construct: Eurofins Cerep (contract screening)
T2 sequence (P18825 1-462): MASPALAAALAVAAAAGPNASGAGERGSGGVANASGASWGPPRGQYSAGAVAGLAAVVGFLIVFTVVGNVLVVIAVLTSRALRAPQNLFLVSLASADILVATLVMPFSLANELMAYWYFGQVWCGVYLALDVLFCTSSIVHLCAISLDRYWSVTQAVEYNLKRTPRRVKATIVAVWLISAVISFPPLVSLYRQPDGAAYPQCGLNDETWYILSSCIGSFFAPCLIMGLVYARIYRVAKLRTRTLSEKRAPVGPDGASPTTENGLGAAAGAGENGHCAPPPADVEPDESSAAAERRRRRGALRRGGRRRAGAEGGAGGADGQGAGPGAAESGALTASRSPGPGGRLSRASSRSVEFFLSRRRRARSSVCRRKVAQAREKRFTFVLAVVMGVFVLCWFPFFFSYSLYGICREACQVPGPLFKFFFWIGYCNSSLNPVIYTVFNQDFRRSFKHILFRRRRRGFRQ
In words: Radioligand binding assay (Eurofins Cerep), [3H]RX 821002 displacement. The following applies: Ki (nM ± SEM) a2C-AR, 3 independent experiments.

The mark [2] stands for this setting: Table A1, data summary #1, read-out: DOR Ki ± SEM.
Setting [3] is: Table A4, data summary #2, read-out: DOR Ki ± SEM.
The mark [4] stands for this setting: Table A1, data summary #1, read-out: MOR Ki ± SEM.
Where [5] appears, read: Table A4, data summary #2, read-out: MOR Ki ± SEM.
Setting [6] is: Table A1, data summary #1, read-out: KOR Ki ± SEM.
Where [7] appears, read: Table A4, data summary #2, read-out: KOR Ki ± SEM.
[8] abbreviates: Table A1, data summary #1, read-out: Alpha2A Ki ± SEM.
[9] abbreviates: Table A4, data summary #2, read-out: Alpha2A Ki ± SEM.
[10] abbreviates: Table 3-2, 3 independent experiments, read-out: Ki (nM ± SEM) DOR.
Setting [11] is: Table 3-2, 3 independent experiments, read-out: Ki (nM ± SEM) MOR.
The mark [12] stands for this setting: Table 3-2, 3 independent experiments, read-out: Ki (nM ± SEM) KOR.
[13] abbreviates: Ki (nM ± SEM) a2A-AR, Table 3-2, 3 independent experiments.

SMILES strings stand for the structures. Where two headings read alike, the source gives them in different places.

hMOR, sequence (P35372 whole entry): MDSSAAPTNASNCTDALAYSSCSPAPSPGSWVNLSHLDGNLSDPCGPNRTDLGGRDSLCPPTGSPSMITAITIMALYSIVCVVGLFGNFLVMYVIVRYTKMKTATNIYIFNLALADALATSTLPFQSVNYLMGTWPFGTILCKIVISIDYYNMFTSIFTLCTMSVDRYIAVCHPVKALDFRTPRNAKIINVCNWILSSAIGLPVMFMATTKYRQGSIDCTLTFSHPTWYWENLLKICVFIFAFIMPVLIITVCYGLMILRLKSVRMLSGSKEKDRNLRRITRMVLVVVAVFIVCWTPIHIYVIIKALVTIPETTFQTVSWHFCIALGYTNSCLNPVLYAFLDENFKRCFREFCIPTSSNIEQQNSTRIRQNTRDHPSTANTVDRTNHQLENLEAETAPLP
hKOR, sequence (P41145 whole entry): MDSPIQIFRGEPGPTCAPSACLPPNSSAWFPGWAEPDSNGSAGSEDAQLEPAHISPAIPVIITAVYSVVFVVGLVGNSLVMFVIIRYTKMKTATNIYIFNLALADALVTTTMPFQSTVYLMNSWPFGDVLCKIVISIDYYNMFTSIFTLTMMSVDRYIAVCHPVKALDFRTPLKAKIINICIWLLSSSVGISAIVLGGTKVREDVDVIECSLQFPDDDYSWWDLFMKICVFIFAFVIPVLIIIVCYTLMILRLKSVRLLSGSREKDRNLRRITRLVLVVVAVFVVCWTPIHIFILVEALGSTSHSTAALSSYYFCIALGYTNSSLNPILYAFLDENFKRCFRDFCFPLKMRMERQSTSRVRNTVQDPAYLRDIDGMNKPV
hDOR, sequence (P41143 whole entry): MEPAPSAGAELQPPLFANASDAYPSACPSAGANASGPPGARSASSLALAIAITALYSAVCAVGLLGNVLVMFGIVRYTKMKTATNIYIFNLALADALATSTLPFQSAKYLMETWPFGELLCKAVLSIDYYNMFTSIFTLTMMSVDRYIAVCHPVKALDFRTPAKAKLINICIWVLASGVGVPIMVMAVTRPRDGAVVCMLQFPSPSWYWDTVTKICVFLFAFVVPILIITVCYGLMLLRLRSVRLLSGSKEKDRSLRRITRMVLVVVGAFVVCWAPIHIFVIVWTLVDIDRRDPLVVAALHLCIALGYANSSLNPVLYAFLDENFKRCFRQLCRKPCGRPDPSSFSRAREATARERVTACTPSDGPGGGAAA

On to `CCCNC(=O)/C(=C/OC)[C@H]1C[C@H]2c3[nH]c4cccc(OC)c4c3CCN2C[C@H]1CC` [SUSM-27, (E)-2-((2S,3S,12bS)-3-ethyl-8-methoxy-1,2,3,4,6,7,12,12b-octahydroindolo[2,3-a]quinolizin-2-yl)-3-methoxy-N-propylacrylamide], for which the Ki – broadly, a measure of affinity in units of concentration, obtained from inhibition or displacement – at hDOR (setting [2]) was above 10000 nM; at hDOR (setting [3]), above 10000 nM; at hMOR (setting [4]) it was 4560 ± 692 nM; at hMOR (setting [5]), 4560 ± 692 nM; at hKOR (setting [6]), above 10000 nM; at hKOR (setting [7]), above 10000 nM. In addition, the Ki was found to be 2730 ± 1260 nM at α2A adrenergic receptor (setting [8]) and 6450 ± 2590 nM on α2A adrenergic receptor (setting [9]). Further, the “Whole liver clearance, CL int, H” value in data set [1] turned out to be 20.8 mL/min/kg. In data set [1], the “RLM stability” value is reported as above 60 min.
On to `CCNC(=O)/C(=C/OC)[C@H]1C[C@H]2c3[nH]c4cccc(OC)c4c3CCN2C[C@H]1CC` [SUSM-32, (E)-N-ethyl-2-((2S,3S,12bS)-3-ethyl-8-methoxy-1,2,3,4,6,7,12,12b-octahydroindolo[2,3-a]quinolizin-2-yl)-3-methoxyacrylamide], for which the Ki on hDOR (setting [2]) was above 10000 nM; on hDOR (setting [3]), above 10000 nM; at hMOR (setting [4]), 4220 ± 752 nM; at hMOR (setting [5]), 4220 ± 752 nM; at hKOR (setting [6]), above 10000 nM; on hKOR (setting [7]), above 10000 nM. Moreover, the values for the Ki on α2A adrenergic receptor (setting [8]) and at α2A adrenergic receptor (setting [9]) were 4290 ± 1120 nM and 3870 ± 984 nM, respectively. Moreover, the “Whole liver clearance, CL int, H” value in data set [1] was found to be 11.4 mL/min/kg. For the same compound, the “RLM stability” value in data set [1] is recorded as above 60 min.
On to `CCCN(C)C(=O)/C(=C/OC)[C@H]1C[C@H]2c3[nH]c4cccc(OC)c4c3CCN2C[C@H]1CC` [SUSM-521, (E)-2-((2S,3S,12bS)-3-ethyl-8-methoxy-1,2,3,4,6,7,12,12b-octahydroindolo[2,3-a]quinolizin-2-yl)-3-methoxy-N-methyl-N-propylacrylamide], for which the Ki stood at 5890 ± 105 nM at hDOR (setting [2]); 4030 ± 797 nM on hDOR (setting [3]); 222 ± 33 nM on hMOR (setting [5]); 167 nM at hMOR (read-out: Ki at hMOR); 2610 ± 588 nM at hKOR (setting [6]); 2610 ± 588 nM on hKOR (setting [7]). Besides, the Ki on α2A adrenergic receptor (setting [9]) was determined as 1510 ± 676 nM. For the same compound, the “RLM stability” value in data set [1] is recorded as below 5 min.
Take `CC[C@@H]1CN2CCc3c([nH]c4cccc(OC)c34)[C@@H]2C[C@@H]1/C(=C\OC)C(=O)N1CCCCC1` [SUSM-518, (E)-2-((2S,3S,12bS)-3-ethyl-8-methoxy-1,2,3,4,6,7,12,12b-octahydroindolo[2,3-OMea]quinolizin-2-yl)-3-methoxy-1-(piperidin-1-yl)prop-2-en-1-one]: the Ki on hDOR (setting [2]) was above 10000 nM; on hDOR (setting [3]), above 10000 nM; at hMOR (setting [5]) it was 244 ± 55 nM; on hMOR (read-out: Ki at hMOR), 129 nM; at hKOR (setting [6]) it was 7460 ± 1420 nM; on hKOR (setting [7]), 7460 ± 1420 nM. Also, at α2A adrenergic receptor (setting [9]), the Ki was 523 ± 155 nM. In addition, in data set [1], the “RLM stability” value is on record as below 5 min.
In the case of `CO/C=C(/C(=O)OC)C1CCN(CCc2c[nH]c3ccccc23)CC1` [Compound 3-23], the Ki on hDOR (Table 3-1, 3 independent experiments, read-out: Ki (nM ± SEM) DOR) is above 10000 nM; on hDOR (setting [10]), above 10000 nM; on hDOR (Table 3-4, 3 independent experiments, read-out: Ki (nM ± SEM) DOR), above 10000 nM; on hDOR (Table 3-5, 3 independent experiments, read-out: Ki (nM ± SEM) DOR) it was above 10000 nM; on hDOR (Table 3-6, 3 independent experiments, read-out: Ki (nM ± SEM) DOR) it was above 10000 nM; on hMOR (Table 3-1, 3 independent experiments, read-out: Ki (nM ± SEM) MOR), 451 ± 108 nM. For the same compound, the Ki at hMOR (setting [11]) was determined as 451 ± 108 nM; at hMOR (Table 3-4, 3 independent experiments, read-out: Ki (nM ± SEM) MOR), 451 ± 108 nM; at hMOR (Table 3-5, 3 independent experiments, read-out: Ki (nM ± SEM) MOR) it was 451 ± 108 nM; on hMOR (Table 3-6, 3 independent experiments, read-out: Ki (nM ± SEM) MOR), 451 ± 108 nM; at hKOR (Table 3-1, 3 independent experiments, read-out: Ki (nM ± SEM) KOR) it was 3670 ± 1260 nM; at hKOR (setting [12]), 3670 ± 1260 nM. The Ki on hKOR (Table 3-4, 3 independent experiments, read-out: Ki (nM ± SEM) KOR) stood at 3670 ± 1260 nM; at hKOR (Table 3-5, 3 independent experiments, read-out: Ki (nM ± SEM) KOR), 3670 ± 1260 nM; on hKOR (Table 3-6, 3 independent experiments, read-out: Ki (nM ± SEM) KOR), 3670 ± 1260 nM; at α2A adrenergic receptor (Ki (nM ± SEM) a2A-AR, Table 3-1, 3 independent experiments) it was 741 ± 19.3 nM; on α2A adrenergic receptor (setting [13]), 741 ± 19.3 nM; at α2A adrenergic receptor (Ki (nM ± SEM) a2A-AR, Table 3-4, 3 independent experiments), 741 ± 19.3 nM. Further, the Ki on α2A adrenergic receptor (Ki (nM ± SEM) a2A-AR, Table 3-6, 3 independent experiments) was 741 ± 19.3 nM; on α2A adrenergic receptor (Ki (nM ± SEM) a2A-ar, Table 3-5, 3 independent experiments), 741 ± 19.3 nM; at α2C adrenergic receptor (Table 3-1), 830 ± 268 nM; on α2C adrenergic receptor (Table 3-2), 830 ± 268 nM; on α2C adrenergic receptor (Table 3-4), 830 ± 268 nM; on α2C adrenergic receptor (Table 3-5), 830 ± 268 nM. This compound also came in with a Ki at α2C adrenergic receptor (Table 3-6) of 135 ± 12.5 nM. Besides, the “SR: Selectivity Ratio (KiMOR/Kiα2A)” value on hMOR (Table 3-1), at hMOR (Table 3-2), on hMOR (Table 3-4), at hMOR (Table 3-5) and on hMOR (Table 3-6) was 0.61 each time.
With `COC(=O)CC1CCN(CCc2c[nH]c3c(OC)cccc23)CC1` [Compound 3-42], the Ki on hDOR (setting [10]) was above 10000 nM; on hDOR (Table 3-3, 3 independent experiments, read-out: Ki (nM ± SEM) DOR), above 10000 nM; at hMOR (setting [11]), above 10000 nM; at hMOR (Table 3-3, 3 independent experiments, read-out: Ki (nM ± SEM) MOR), above 10000 nM; on hKOR (setting [12]), above 10000 nM; on hKOR (Table 3-3, 3 independent experiments, read-out: Ki (nM ± SEM) KOR), above 10000 nM. For the same compound, the Ki at α2A adrenergic receptor (setting [13]) stood at 1300 ± 129 nM; on α2A adrenergic receptor (Ki (nM ± SEM) a2A-AR, Table 3-3, 3 independent experiments), 1300 ± 129 nM; at α2C adrenergic receptor (Table 3-2), 830 ± 268 nM.

The record behind these values is patent US20260234147A1 (priority 2023, published 2026).
